{"source": "ChEMBL document CHEMBL4138190", "about": "“Anti-amyloidogenic and anti-apoptotic effect of α-bisabolol against Aβ induced neurotoxicity in PC12 cells” (Eur J Med Chem, 2018)", "key": {"[1]": {"molecular_target": "Amyloid-beta precursor protein (Homo sapiens) (UniProt P05067)", "sequence (P05067 whole entry, the tested form may be a part)": "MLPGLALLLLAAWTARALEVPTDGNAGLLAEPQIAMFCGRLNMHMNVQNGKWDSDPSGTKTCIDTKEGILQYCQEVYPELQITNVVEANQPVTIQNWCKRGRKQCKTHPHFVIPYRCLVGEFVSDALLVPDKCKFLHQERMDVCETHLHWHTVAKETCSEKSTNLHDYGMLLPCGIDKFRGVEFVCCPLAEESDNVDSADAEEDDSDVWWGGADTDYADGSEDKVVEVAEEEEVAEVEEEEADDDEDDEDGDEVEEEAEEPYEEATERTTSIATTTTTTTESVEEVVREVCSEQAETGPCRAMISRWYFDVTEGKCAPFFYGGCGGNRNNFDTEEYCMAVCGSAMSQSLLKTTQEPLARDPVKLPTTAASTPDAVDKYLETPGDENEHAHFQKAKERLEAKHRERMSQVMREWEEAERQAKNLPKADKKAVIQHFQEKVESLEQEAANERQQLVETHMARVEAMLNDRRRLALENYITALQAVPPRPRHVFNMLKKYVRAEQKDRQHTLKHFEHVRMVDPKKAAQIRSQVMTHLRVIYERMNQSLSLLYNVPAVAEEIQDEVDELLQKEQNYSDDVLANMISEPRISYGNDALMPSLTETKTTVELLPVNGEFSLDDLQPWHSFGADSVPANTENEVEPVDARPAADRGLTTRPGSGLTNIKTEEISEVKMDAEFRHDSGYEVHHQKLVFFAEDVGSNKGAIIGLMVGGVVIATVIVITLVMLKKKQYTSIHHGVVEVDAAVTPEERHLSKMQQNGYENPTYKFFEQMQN", "assay": "Disaggregation of amyloid beta (25 to 35 residues) (unknown origin) preformed fibrils at 50 ug/ml after 96 hrs to 9 days by ThT-based fluorescence spectroscopic method"}, "[2]": {"molecular_target": "Amyloid-beta precursor protein (Homo sapiens) (UniProt P05067)", "assay": "Inhibition of amyloid beta (25 to 35 residues) (unknown origin) aggregation at 50 ug/ml after 24 to 48 hrs by thioflavin T dye based confocal laser scanning microscopy"}, "[3]": {"molecular_target": "Amyloid-beta precursor protein (Homo sapiens) (UniProt P05067)", "assay": "Inhibition of amyloid beta (25 to 35 residues) (unknown origin) aggregation at 50 ug/ml after 24 to 48 hrs by FTIR spectroscopy"}, "[4]": {"molecular_target": "Amyloid-beta precursor protein (Homo sapiens) (UniProt P05067)", "assay": "Disaggregation of amyloid beta (25 to 35 residues) (unknown origin) preformed fibrils at 50 ug/ml after 96 hrs to 9 days by FTIR spectroscopy"}, "[5]": {"molecular_target": "Amyloid-beta precursor protein (Homo sapiens) (UniProt P05067)", "assay": "Disaggregation of amyloid beta (25 to 35 residues) (unknown origin) preformed fibrils at 50 ug/ml after 96 hrs to 9 days by thioflavin T dye based confocal laser scanning microscopy"}, "[6]": {"molecular_target": "Amyloid-beta precursor protein (Homo sapiens) (UniProt P05067)", "assay": "(§1) Inhibition of amyloid beta (25 to 35 residues) (unknown origin)-induced toxicity in rat PC12 cells assessed as protection against amyloid beta (25 to 35 residues)-induced apoptosis by measuring necrotic cells at 50 ug/ml by Annexin V-FITC/propidium iodide staining-based flow cytometric method (reference value: 0.73%)", "assay_type": "cell-based", "set-up": "scale not given: the % may be the effect or the level left", "conditions": "at 50 µg/mL"}, "[7]": {"molecular_target": "Amyloid-beta precursor protein (Homo sapiens) (UniProt P05067)", "conditions": "at 50 µg/mL", "description": "Inhibition of amyloid beta (25 to 35 residues) (unknown origin)-induced toxicity in rat PC12 cells assessed as cell survival at 50 ug/ml after 1 to 3 weeks by clonogenic assay (Rvb = 25%)"}, "[8]": {"molecular_target": "Amyloid-beta precursor protein (Homo sapiens) (UniProt P05067)", "assay": "as §1, with “late apoptotic” for “necrotic”, “4.56%)” for “0.73%)”", "assay_type": "cell-based", "set-up": "scale not given: the % may be the effect or the level left", "conditions": "at 50 µg/mL"}, "[9]": {"molecular_target": "Amyloid-beta precursor protein (Homo sapiens) (UniProt P05067)", "assay": "(§2) Inhibition of amyloid beta (25 to 35 residues) (unknown origin)-induced toxicity in rat PC12 cells assessed as increase in cell viability at 50 ug/ml preincubated for 2 hrs followed by amyloid beta (25 to 35 residues) addition measured after 24 hrs by MTT dye based light microscopic assay (reference value: 48%)", "conditions": "at 50 µg/mL"}, "[10]": {"molecular_target": "Amyloid-beta precursor protein (Homo sapiens) (UniProt P05067)", "assay": "as §1, with “early apoptotic” for “necrotic”, “46%)” for “0.73%)”", "assay_type": "cell-based", "set-up": "scale not given: the % may be the effect or the level left", "conditions": "at 50 µg/mL"}, "[11]": {"molecular_target": "Amyloid-beta precursor protein (Homo sapiens) (UniProt P05067)", "assay": "as §1, with “viable” for “necrotic”, “48.71%)” for “0.73%)”", "assay_type": "cell-based", "conditions": "at 50 µg/mL"}, "[12]": {"molecular_target": "Amyloid-beta precursor protein (Homo sapiens) (UniProt P05067)", "assay": "as §1, with “early apoptotic” for “necrotic”, “5” for “50”, “46%)” for “0.73%)”", "assay_type": "cell-based", "set-up": "scale not given: the % may be the effect or the level left"}, "[13]": {"molecular_target": "Amyloid-beta precursor protein (Homo sapiens) (UniProt P05067)", "assay": "Inhibition of amyloid beta (25 to 35 residues) (unknown origin) aggregation at 5 ug/ml after 24 to 48 hrs by FTIR spectroscopy"}, "[14]": {"molecular_target": "Amyloid-beta precursor protein (Homo sapiens) (UniProt P05067)", "assay": "Disaggregation of amyloid beta (25 to 35 residues) (unknown origin) preformed fibrils at 5 ug/ml after 96 hrs to 9 days by thioflavin T dye based confocal laser scanning microscopy"}, "[15]": {"molecular_target": "Amyloid-beta precursor protein (Homo sapiens) (UniProt P05067)", "assay": "Disaggregation of amyloid beta (25 to 35 residues) (unknown origin) preformed fibrils at 5 ug/ml after 96 hrs to 9 days by phosphotungstic acid staining based transmission electron microscopy"}, "[16]": {"molecular_target": "Amyloid-beta precursor protein (Homo sapiens) (UniProt P05067)", "assay": "Disaggregation of amyloid beta (25 to 35 residues) (unknown origin) preformed fibrils at 5 ug/ml after 96 hrs to 9 days by FTIR spectroscopy"}, "[17]": {"molecular_target": "Amyloid-beta precursor protein (Homo sapiens) (UniProt P05067)", "assay": "Inhibition of amyloid beta (25 to 35 residues) (unknown origin)-induced toxicity in rat PC12 cells assessed as cell survival at 5 ug/ml after 1 to 3 weeks by clonogenic assay (reference value: 25%)", "assay_type": "cell-based"}, "[18]": {"molecular_target": "Amyloid-beta precursor protein (Homo sapiens) (UniProt P05067)", "assay": "Inhibition of amyloid beta (25 to 35 residues) (unknown origin) aggregation at 5 ug/ml after 24 to 48 hrs by thioflavin T dye based confocal laser scanning microscopy"}, "[19]": {"molecular_target": "Amyloid-beta precursor protein (Homo sapiens) (UniProt P05067)", "assay": "as §1, with “5” for “50”", "assay_type": "cell-based", "set-up": "scale not given: the % may be the effect or the level left"}, "[20]": {"molecular_target": "Amyloid-beta precursor protein (Homo sapiens) (UniProt P05067)", "assay": "Disaggregation of amyloid beta (25 to 35 residues) (unknown origin) preformed fibrils at 5 ug/ml after 96 hrs to 9 days by ThT-based fluorescence spectroscopic method"}, "[21]": {"molecular_target": "Amyloid-beta precursor protein (Homo sapiens) (UniProt P05067)", "assay": "Inhibition of amyloid beta (25 to 35 residues) (unknown origin) aggregation at 5 ug/ml after 24 to 48 hrs by ThT-based fluorescence spectroscopic method"}, "[22]": {"molecular_target": "Acetylcholinesterase (Homo sapiens, UniProt P22303)", "sequence (P22303 whole entry)": "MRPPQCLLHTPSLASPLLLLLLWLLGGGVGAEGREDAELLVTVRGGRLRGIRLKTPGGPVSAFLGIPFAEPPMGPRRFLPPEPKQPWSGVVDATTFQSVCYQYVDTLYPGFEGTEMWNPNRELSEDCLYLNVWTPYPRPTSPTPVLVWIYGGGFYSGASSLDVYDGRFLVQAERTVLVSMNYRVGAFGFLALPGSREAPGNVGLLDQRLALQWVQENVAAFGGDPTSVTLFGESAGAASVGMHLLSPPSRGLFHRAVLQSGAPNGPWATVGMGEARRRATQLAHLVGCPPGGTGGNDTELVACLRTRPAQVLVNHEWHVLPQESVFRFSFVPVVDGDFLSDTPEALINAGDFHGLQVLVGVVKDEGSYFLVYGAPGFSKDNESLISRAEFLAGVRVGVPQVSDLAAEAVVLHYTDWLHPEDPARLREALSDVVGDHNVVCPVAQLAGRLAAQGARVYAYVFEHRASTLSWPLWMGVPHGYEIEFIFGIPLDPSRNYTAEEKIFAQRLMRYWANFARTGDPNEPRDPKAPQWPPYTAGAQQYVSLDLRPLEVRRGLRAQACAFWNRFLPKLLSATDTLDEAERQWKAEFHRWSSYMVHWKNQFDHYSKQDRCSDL", "assay": "Inhibition of AChE (unknown origin) preincubated for 45 mins followed by ATCI substrate addition measured for 3 mins"}, "[23]": {"molecular_target": "Amyloid-beta precursor protein (Homo sapiens) (UniProt P05067)", "assay": "as §1, with “viable” for “necrotic”, “5” for “50”, “48.71%)” for “0.73%)”", "assay_type": "cell-based"}, "[24]": {"molecular_target": "Amyloid-beta precursor protein (Homo sapiens) (UniProt P05067)", "assay": "as §1, with “late apoptotic” for “necrotic”, “5” for “50”, “4.56%)” for “0.73%)”", "assay_type": "cell-based", "set-up": "scale not given: the % may be the effect or the level left"}, "[25]": {"molecular_target": "Amyloid-beta precursor protein (Homo sapiens) (UniProt P05067)", "assay": "as §2, with “2 to 10” for “50”"}, "[26]": {"molecular_target": "Amyloid-beta precursor protein (Homo sapiens) (UniProt P05067)", "assay": "Inhibition of amyloid beta (25 to 35 residues) (unknown origin) aggregation at 5 ug/ml after 24 to 48 hrs by phosphotungstic acid staining based transmission electron microscopy"}}, "note": "Calls of active or inactive are those of the source. The calls are words filed in the database; no cut-off is given here."}
{"compound": "COc1ccc2c3c1O[C@H]1C[C@@H](O)C=C[C@@]31CCN(C)C2", "values": [{"measurement": "Activity", "setting": "[1]", "result": "Active"}, {"measurement": "inhibition", "setting": "[2]", "result": "Active"}, {"measurement": "inhibition", "setting": "[3]", "result": "Active"}, {"measurement": "Activity", "setting": "[4]", "result": "Active"}, {"measurement": "Activity", "setting": "[5]", "result": "Active"}]}
{"compound": "COc1cc2c(cc1OC)C(=O)C(CC1CCN(Cc3ccccc3)CC1)C2", "note": "(stereo unspecified)", "values": [{"measurement": "Activity", "setting": "[6]", "result": 2, "unit": "%"}, {"measurement": "Survival", "setting": "[7]", "result": 96, "unit": "%"}, {"measurement": "Activity", "setting": "[8]", "result": 0.26, "unit": "%"}, {"measurement": "Activity", "setting": "[9]", "result": 81, "unit": "%"}, {"measurement": "Activity", "setting": "[10]", "result": 1.58, "unit": "%"}, {"measurement": "Activity", "setting": "[11]", "result": 96.2, "unit": "%"}]}
{"compound": "CC(C)=CCC[C@@](C)(O)[C@H]1CC=C(C)CC1", "values": [{"measurement": "Activity", "setting": "[12]", "result": 1.32, "unit": "%"}, {"measurement": "inhibition", "setting": "[13]", "result": "Active"}, {"measurement": "Activity", "setting": "[14]", "result": "Active"}, {"measurement": "Activity", "setting": "[15]", "result": "Active"}, {"measurement": "Activity", "setting": "[16]", "result": "Active"}, {"measurement": "Survival", "setting": "[17]", "result": 96, "unit": "%"}, {"measurement": "inhibition", "setting": "[18]", "result": "Active"}, {"measurement": "Activity", "setting": "[19]", "result": 0.62, "unit": "%"}, {"measurement": "Activity", "setting": "[20]", "result": "Active"}, {"measurement": "inhibition", "setting": "[21]", "result": "Active"}, {"measurement": "IC50", "setting": "[22]", "result": "< 45", "unit": "µM"}, {"measurement": "Activity", "setting": "[23]", "result": 97.8, "unit": "%"}, {"measurement": "Activity", "setting": "[24]", "result": 0.31, "unit": "%"}, {"measurement": "Activity", "setting": "[25]", "result": "> 80", "unit": "%"}, {"measurement": "inhibition", "setting": "[26]", "result": "Active"}]}
